Experimental data: ChEMBL document CHEMBL5113511, “Discovery of Small-Molecule Degraders of the CDK9-Cyclin T1 Complex for Targeting Transcriptional Addiction in Prostate Cancer” (J Med Chem, 2022)
Calls of active or inactive are those of the source. The calls are words filed in the database; no cut-off is given here.

Tests used:
Assay type in all cases: cell-based
[1] = biological target: T1, CDK9/cyclin T1 (Homo sapiens) (UniProt O60563+P50750); experiment: Induction of CDK9/Cyclin T1 degradation in human 22Rv1 cells assessed as downregulation of KLK2 gene expression at 2 uM incubated for 24 hrs by RNA-Seq based analysis
[2] = biological target: T1, CDK9/cyclin T1 (Homo sapiens); experiment: Induction of CDK9/Cyclin T1 degradation in human 22Rv1 cells assessed as downregulation of MYCL gene expression at 2 uM incubated for 24 hrs by RNA-Seq based analysis
[3] = biological target: T2, Cyclin-T1 (Homo sapiens, UniProt O60563); experiment: Induction of Hyt-mediated degradation of cyclin T1 in human 22Rv1 cells assessed as downregulation of cyclin T1 level at 2 uM incubated for 24 hrs by DIA-based proteomics analysis
[4] = biological target: Cyclin-dependent kinase 4 (Homo sapiens) (UniProt P11802); experiment: Induction of CDK4 degradation in human 22Rv1 cells assessed as downregulation of CDK4 level at 3 uM measured after 12 hrs by DIA-based proteomics analysis
[5] = biological target: T1, CDK9/cyclin T1 (Homo sapiens); experiment: Induction of CDK9/Cyclin T1 degradation in human 22Rv1 cells assessed as downregulation of ZNF517 gene expression at 2 uM incubated for 24 hrs by RNA-Seq based analysis
[6] = biological target: T2, Cyclin-T1; experiment: Induction of HA-tagged Cyclin T1 (unknown origin) polyubiquitination expressed in HEK293T cells co-transfected with Flag-tagged CDK9 and Myc ubiquitin assessed as increase in K48-linkage poly-ubiqutinated Cyclin T1 level at 1 to 2 uM incubated for 20 hrs by immunoprecipitation analysis; settings: dose 1-2 µM

T2 sequence (O60563 whole entry): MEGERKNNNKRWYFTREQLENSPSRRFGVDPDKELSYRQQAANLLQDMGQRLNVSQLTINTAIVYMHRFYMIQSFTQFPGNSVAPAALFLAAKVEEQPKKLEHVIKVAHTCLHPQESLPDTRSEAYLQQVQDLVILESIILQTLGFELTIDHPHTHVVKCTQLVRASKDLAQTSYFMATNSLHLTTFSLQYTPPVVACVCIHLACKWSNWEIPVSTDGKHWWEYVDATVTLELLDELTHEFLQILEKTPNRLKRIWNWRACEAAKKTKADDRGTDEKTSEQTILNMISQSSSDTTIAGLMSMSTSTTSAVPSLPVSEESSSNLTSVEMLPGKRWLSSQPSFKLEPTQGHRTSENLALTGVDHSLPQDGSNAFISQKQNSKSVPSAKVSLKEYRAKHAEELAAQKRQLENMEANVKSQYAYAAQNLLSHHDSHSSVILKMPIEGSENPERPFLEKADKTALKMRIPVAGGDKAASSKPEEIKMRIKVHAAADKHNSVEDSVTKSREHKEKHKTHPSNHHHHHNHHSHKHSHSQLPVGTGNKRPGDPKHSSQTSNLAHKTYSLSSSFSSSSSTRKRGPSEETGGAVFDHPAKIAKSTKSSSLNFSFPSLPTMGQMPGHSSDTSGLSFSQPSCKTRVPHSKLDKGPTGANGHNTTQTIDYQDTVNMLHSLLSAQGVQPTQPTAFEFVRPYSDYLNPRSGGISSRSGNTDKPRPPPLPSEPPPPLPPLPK
Sequence of Cyclin-dependent kinase 4 (Homo sapiens) (P11802 whole entry): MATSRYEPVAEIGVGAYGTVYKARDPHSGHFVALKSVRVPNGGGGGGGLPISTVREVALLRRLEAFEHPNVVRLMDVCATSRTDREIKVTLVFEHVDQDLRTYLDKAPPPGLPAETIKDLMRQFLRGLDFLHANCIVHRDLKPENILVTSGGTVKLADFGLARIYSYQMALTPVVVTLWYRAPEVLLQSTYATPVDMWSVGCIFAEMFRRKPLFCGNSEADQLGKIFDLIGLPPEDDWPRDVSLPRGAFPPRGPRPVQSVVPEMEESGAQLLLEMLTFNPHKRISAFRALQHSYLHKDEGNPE

Activity [1]: Active
Activity [2]: Active
Activity [3]: Active
Activity [4]: Active
Activity [5]: Active
Activity [6]: Active
Compound: CC(C)[C@@H]1CC[C@@H](C)C[C@H]1OCC(=O)NCCS(=O)(=O)N1CCC(C(=O)Nc2ncc(SCc3ncc(C(C)(C)C)o3)s2)CC1
